What follows are molecules tested on FLK-1 receptor (assay: FLK-1 Assay (cellular/catalytic ELISA, VEGF-stimulated phosphotyrosine)). Conditions: protocol P.110.
Type: cell-based
Parameters: concentration or dose not given beside the values
Summary of the method: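 NIH3T3 C7#3 cells engineered to express Flk-1 were serum-starved overnight (0.1% FBS), then exposed to compound for 2 h at 37 °C (final dilution 1:200, 0.5% DMSO) before VEGF stimulation. Lysates captured on anti-FLK-1 antiserum plates; phosphotyrosine detected by UB40 antibody/POD-ABTS ELISA versus untreated controls.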

Point of comparison: `Cc1c(Br)cc(Br)c2c1C(=Cc1ccc3ccccc3n1)C(=O)N2` [10740/H06], “Flk Kinase % Inhibition (P.110)” value 3.2%. Against it:
- O=C1Nc2ccc(S(=O)(=O)Nc3ccc(C(F)(F)F)cc3)cc2C1=Cc1ccc2ccccc2n1 [10740/E06] — lower, −8.4%
- Cn1cc(C=C2C(=O)Nc3ccc(S(=O)(=O)Nc4ccc(C(F)(F)F)cc4)cc32)c2ccccc21 [10740/E07] — higher, 34.4%
- O=C1Nc2ccc(S(=O)(=O)N3CCOCC3)cc2C1=Cc1cnc2ccccc2c1 [10740/F02] — lower, 2.8%
- CCCCOc1ccc(C=C2C(=O)Nc3ccc(S(=O)(=O)Nc4ccc(C(F)(F)F)cc4)cc32)cc1 [10740/E11] — higher, 17.1%
- O=C1Nc2ccc(CCCl)cc2C1=Cc1ccnc2ccccc12 [10740/G03] — lower, −2.0%
- Cc1c(Br)ccc2c1C(=Cc1ccc3ccccc3n1)C(=O)N2 [10740/C06] — lower, −19.1%
- Cn1cc(C=C2C(=O)Nc3ccc(I)cc32)c2ccccc21 [10740/B07] — lower, −8.5%
- CNS(=O)(=O)c1ccc2c(c1)C(=Cc1ccsc1)C(=O)N2 [10740/D05] — lower, −6.3%
- Cc1c(Br)cc(Br)c2c1C(=Cc1ccc(CO)o1)C(=O)N2 [10739/H11] — lower, −7.6%
- COC1CCCN1C=C1C(=O)Nc2ccc(S(=O)(=O)N3CCOCC3)cc21 (stereo not shown) [10740/F04] — higher, 6.8%
- O=C1Nc2ccc(I)cc2C1=Cc1ccnc2ccccc12 [10740/B03] — lower, −9.3%
- COC1CCCN1C=C1C(=O)Nc2c(Br)cc(Br)c(C)c21 (stereo not shown) [10740/H04] — higher, 6.0%
- CNS(=O)(=O)c1ccc2c(c1)C(=Cc1ccnc3ccccc13)C(=O)N2 [10740/D03] — higher, 15.1%
- COC1CCCN1C=C1C(=O)Nc2c(Br)cc(Br)cc21 (racemic) [10740/A04] — lower, 1.3%
- CCCCOc1ccc(C=C2C(=O)Nc3ccc(S(=O)(=O)NC)cc32)cc1 [10740/D11] — lower, 3.0%
- O=C1Nc2ccc(CCCl)cc2C1=Cc1cc(Br)cs1 [10740/G10] — lower, −2.8%
- CNS(=O)(=O)c1ccc2c(c1)C(=Cc1cnc3ccccc3c1)C(=O)N2 [10740/D02] — higher, 4.1%
- O=C1Nc2ccc(CCCl)cc2C1=Cc1cnc2ccccc2c1 [10740/G02] — lower, −2.6%
- O=C1Nc2ccc(S(=O)(=O)Nc3ccc(C(F)(F)F)cc3)cc2C1=Cc1ccsc1 [10740/E05] — higher, 28.7%
- Cc1[nH]c2ccccc2c1C=C1C(=O)Nc2ccc(CCCl)cc21 [10740/G08] — lower, −0.5%
- COC1CCCN1C=C1C(=O)Nc2ccc(CCCl)cc21 (stereo not shown) [10740/G04] — lower, −5.1%
- O=C1Nc2c(Br)cc(Br)cc2C1=Cc1cc(Br)cs1 [10740/A10] — lower, −7.7%
- Cc1c(Br)cc(Br)c2c1C(=Cc1cc(Br)cs1)C(=O)N2 [10740/H10] — lower, 0.4%
- Cc1c(Br)cc(Br)c2c1C(=Cc1cnc3ccccc3c1)C(=O)N2 [10740/H02] — lower, −3.7%
- Cc1c(Br)cc(Br)c2c1C(=Cc1ccnc3ccccc13)C(=O)N2 [10740/H03] — lower, −9.7%
- Cn1cc(C=C2C(=O)Nc3c(Br)cc(Br)cc32)c2ccccc21 [10740/A07] — lower, −18.3%
- COC1CCCN1C=C1C(=O)Nc2ccc(I)cc21 (racemic) [10740/B04] — lower, −0.3%
- O=C1Nc2ccc(I)cc2C1=Cc1cc(Br)cs1 [10740/B10] — higher, 11.8%
- O=C1Nc2ccc(S(=O)(=O)Nc3ccc(C(F)(F)F)cc3)cc2C1=Cc1cc(Br)cs1 [10740/E10] — higher, 11.8%
- O=C1Nc2ccc(I)cc2C1=Cc1ccsc1 [10740/B05] — lower, −11.6%
- O=C1Nc2ccc(CCCl)cc2C1=Cc1ccc2ccccc2n1 [10740/G06] — lower, −19.3%
- CNS(=O)(=O)c1ccc2c(c1)C(=Cc1cc(Br)cs1)C(=O)N2 [10740/D10] — lower, 1.5%
- Cc1c(Br)ccc2c1C(=Cc1cc(Br)cs1)C(=O)N2 [10740/C10] — lower, 0.8%
- Cc1c(Br)ccc2c1C(=Cc1cn(C)c3ccccc13)C(=O)N2 [10740/C07] — lower, 1.1%
- CCCCOc1ccc(C=C2C(=O)Nc3ccc(S(=O)(=O)N4CCOCC4)cc32)cc1 [10740/F11] — higher, 8.2%
- Cc1[nH]c2ccccc2c1C=C1C(=O)Nc2c(Br)cc(Br)c(C)c21 [10740/H08] — higher, 11.5%
- Cn1cc(C=C2C(=O)Nc3ccc(CCCl)cc32)c2ccccc21 [10740/G07] — lower, 0.4%
- CCCCOc1ccc(C=C2C(=O)Nc3ccc(I)cc32)cc1 [10740/B11] — lower, 0.7%
- CCCCOc1ccc(C=C2C(=O)Nc3c(Br)cc(Br)cc32)cc1 [10740/A11] — lower, −3.5%
- Cc1c(Br)cc(Br)c2c1C(=Cc1cn(C)c3ccccc13)C(=O)N2 [10740/H07] — higher, 10.1%
- Cn1cc(C=C2C(=O)Nc3ccc(S(=O)(=O)N4CCOCC4)cc32)c2ccccc21 [10740/F07] — lower, −6.3%
- O=C1Nc2c(Br)cc(Br)cc2C1=Cc1ccnc2ccccc12 [10740/A03] — higher, 4.2%
- Cc1c(Br)ccc2c1C(=Cc1ccnc3ccccc13)C(=O)N2 [10740/C03] — lower, −129.3%
- O=C1Nc2ccc(I)cc2C1=Cc1ccc2ccccc2n1 [10740/B06] — lower, −5.9%
- O=C1Nc2ccc(S(=O)(=O)Nc3ccc(C(F)(F)F)cc3)cc2C1=Cc1cnc2ccccc2c1 [10740/E02] — higher, 9.6%
- CNS(=O)(=O)c1ccc2c(c1)C(=CN1CCCC1OC)C(=O)N2 (stereo not shown) [10740/D04] — lower, −2.0%
- Cc1[nH]c2ccccc2c1C=C1C(=O)Nc2c(Br)cc(Br)cc21 [10740/A08] — lower, −18.3%
- Cc1c(Br)ccc2c1C(=Cc1cnc3ccccc3c1)C(=O)N2 [10740/C02] — lower, −5.9%
- CNS(=O)(=O)c1ccc2c(c1)C(=Cc1ccc3ccccc3n1)C(=O)N2 [10740/D06] — higher, 9.6%
- O=C1Nc2ccc(S(=O)(=O)N3CCOCC3)cc2C1=Cc1ccsc1 [10740/F05] — lower, −13.5%
- CCCCOc1ccc(C=C2C(=O)Nc3c(Br)cc(Br)c(C)c32)cc1 [10740/H11] — higher, 7.4%
- O=C1Nc2ccc(CCCl)cc2C1=Cc1ccsc1 [10740/G05] — lower, −18.6%
- O=C1Nc2c(Br)cc(Br)cc2C1=Cc1ccc2ccccc2n1 [10740/A06] — lower, −8.7%
- O=C1Nc2c(Br)cc(Br)cc2C1=Cc1cnc2ccccc2c1 [10740/A02] — higher, 5.7%
- Cc1[nH]c2ccccc2c1C=C1C(=O)Nc2ccc(I)cc21 [10740/B08] — higher, 6.6%
- CCCCOc1ccc(C=C2C(=O)Nc3ccc(Br)c(C)c32)cc1 [10740/C11] — higher, 6.9%
- O=C1Nc2ccc(I)cc2C1=Cc1cnc2ccccc2c1 [10740/B02] — lower, −17.0%
- Cc1[nH]c2ccccc2c1C=C1C(=O)Nc2ccc(S(=O)(=O)N3CCOCC3)cc21 [10740/F08] — lower, −5.0%
- CNS(=O)(=O)c1ccc2c(c1)C(=Cc1cn(C)c3ccccc13)C(=O)N2 [10740/D07] — lower, −4.5%
- Cc1[nH]c2ccccc2c1C=C1C(=O)Nc2ccc(S(=O)(=O)Nc3ccc(C(F)(F)F)cc3)cc21 [10740/E08] — higher, 39.1%
- O=C1Nc2ccc(S(=O)(=O)N3CCOCC3)cc2C1=Cc1ccc2ccccc2n1 [10740/F06] — lower, 1.3%
- O=C1Nc2ccc(S(=O)(=O)N3CCOCC3)cc2C1=Cc1cc(Br)cs1 [10740/F10] — higher, 10.0%
- Cc1c(Br)cc(Br)c2c1C(=Cc1ccsc1)C(=O)N2 [10740/H05] — higher, 5.8%
- O=C1Nc2ccc(S(=O)(=O)Nc3ccc(C(F)(F)F)cc3)cc2C1=Cc1ccnc2ccccc12 [10740/E03] — lower, 0.2%
- O=C1Nc2c(Br)cc(Br)cc2C1=Cc1ccsc1 [10740/A05] — lower, −13.1%
- Cc1[nH]c2ccccc2c1C=C1C(=O)Nc2ccc(Br)c(C)c21 [10740/C08] — higher, 4.6%
- COC1CCCN1C=C1C(=O)Nc2ccc(Br)c(C)c21 (stereo not shown) [10740/C04] — lower, −3.4%
- COC1CCCN1C=C1C(=O)Nc2ccc(S(=O)(=O)Nc3ccc(C(F)(F)F)cc3)cc21 (stereo not shown) [10740/E04] — lower, 2.0%
- Cc1c(Br)ccc2c1C(=Cc1ccsc1)C(=O)N2 [10740/C05] — lower, −19.1%
- O=C1Nc2ccc(S(=O)(=O)N3CCOCC3)cc2C1=Cc1ccnc2ccccc12 [10740/F03] — lower, −0.9%
- CCCCOc1ccc(C=C2C(=O)Nc3ccc(CCCl)cc32)cc1 [10740/G11] — higher, 3.3%
- CNS(=O)(=O)c1ccc2c(c1)C(=Cc1c(C)[nH]c3ccccc13)C(=O)N2 [10740/D08] — lower, −6.4%

Reference: US20020026053A1, “Novel 3-(substituted) -2- indolinones compounds and use thereof as inhibitors of protein kinase activity” (priority 1997, published 2002)
